Assay results: patent publication US20220056075A1, “METHOD FOR TREATING OPIOID USE DISORDER” (THE ADMINISTRATORS OF THE TULANE EDUCATIONAL FUND, priority 2019, published 2022)

Key:
Male Sprague-Dawley rats = test: Reinstatement of morphine-induced conditioned place preference; conditions: priming dose 1.8 mg/Kg, 20 min, vs baseline
Experimental: Male Sprague-Dawley rats were exposed to a conditioned place preference (CPP) apparatus for two sessions to determine baseline (BL) preference for 2 distinct, unbiased chambers. […] The animals then underwent extinction procedures consisting of confinement for 45 min in the previously drug- and vehicle-paired chambers for 7 days.

[1] = cumulative doses producing maximum antinociceptive effects; cited from earlier work
[2] = system: dopamine (DA) neurons in the posterior VTA; test: VTA dopamine cell soma morphology (TH staining, STEREO INVESTIGATOR); type: in vivo, rat; conditions: 5 consecutive daily i.v. injections; morphine effect at 5.6 mg/Kg
Experimental: DA morphology analysis: Fifteen min following the final CPP test session, rats were anesthetized with a mixture of ketamine/xylazine (85/10 mg/Kg, i.p., respectively) and perfused intracardially with 200 mL of 0.1 mol/L phosphate buffered saline (PBS) immediately followed by 300 mL of 4% paraformaldehyde in 0.1 mol/L PBS (pH=7.4). Brains were removed and post-fixed at 4° C. in the same fixative for 18 h. After post-fixation, brains were incubated in 30% sucrose at 4° C. for 2 days and sectioned coronally on a cryostat at 40 μm at the level of the posterior VTA (Spiga et al., 2003; Chu et al., 2008). After 2 consecutive washes in PBS, sections were blocked with 5% normal donkey serum (NDS) for 1 h, and incubated with the primary antibody anti-tyrosine-hydroxylase (anti-TH, 1: 3000 Cell Signaling Technology, Danvers, Mass.) overnight at 4° C. Slices were washed twice in PBS, re-blocked for 1 h, and incubated with the secondary antibody ALEXA594 (Life Technologies, Carlsbad, Calif.), for 2 h. Sections were washed, mounted on slides with PROLONG GOLD (Life Technologies), and stored at 4° C. Posterior VTA sections were verified according to the atlas of Paxinos and Watson (2007). Images of the parabrachial pigmented area (PBP) and the paranigral area (PN) subregions of the posterior VTA were captured in z-stacks (1 μm) with at least 5 tissue slices per rat and 5-6 rats per drug group. STEREO INVESTIGATOR software (MBF Bioscience; Williston, Va.) was used to quantify soma size using the optical fractionator probe to survey a sample of neurons in each z-stack while the nucleator probe was used to measure the cross-sectional area and volume of each cell soma. The optical fractionator probe was used to quantify the number of cells in a particular section of tissue through systematic random sampling. Between 12 and 16 regions were surveyed per z-stack. While the optical fractionator probe utilized stereological techniques to select a random sample to be analyzed, the nucleator probe measured the cross-sectional area of each neuron. Therefore, the simultaneous use of these probes systematically assessed neurons in the PBP and PN regions of the VTA in each subject, and provided morphological data for these cells including surface area (μm^2) and volume (μm^3). Cell somas were eligible to be quantified if they were located within the counting frame and/or if the soma touched either of the nucleator frame's green borders. Neurons were ineligible if located outside the counting frame and/or if their soma touched the frame's red borders. After determining this optimum depth, the center of the soma was located and analyzed by the nucleator probe. To eliminate bias associated with tissue orientation, nucleator rays were randomly arranged between quantifications. […]

## NC(=O)CNC(=O)[C@@H]1CCC(=O)NCCCC[C@@H](NC(=O)[C@@H](N)Cc2ccc(O)cc2)C(=O)N[C@@H](Cc2c[nH]c3ccccc23)C(=O)N[C@@H](Cc2ccccc2)C(=O)N1 [ZH853, Tyr-c[D-Lys-Trp-Phe-Glu]-Gly-NH2]
Male Sprague-Dawley rats
  reinstatement of morphine CPP after extinction: scores not significantly different from baseline
[1]
  motor impairment on the Rotarod: lack of motor impairment
[2]
  surface area of TH-positive somas in pVTA: did not alter
  volume of TH-positive somas in pVTA: did not alter
